Results: ChEMBL document CHEMBL4406889, “The identification and pharmacological evaluation of potent, selective and orally available ACC1 inhibitor” (Bioorg Med Chem Lett, 2019)

Key:
in vitro [1] = details: PAMPA, pH 7.4
Description: Permeability of compound at pH 7.4 by PAMPA assay

in vitro [2] = details: PAMPA, pH 5
Description: Permeability of compound at pH 5 by PAMPA assay

in vivo [3] = details: ICR, mouse, po, 1 mg/kg
Description: MRT in ICR mouse at 1 mg/kg, po

Acetyl-CoA carboxylase 1 [4] = molecular target: Acetyl-CoA carboxylase 1 (Mus musculus, UniProt Q5SWU9); experiment: biochemical
Description: Inhibition of mouse His-tagged ACC1 expressed in baculovirus infected SF9 cells using acetyl-CoA as substrate incubated for 60 mins followed by substrate addition and measured after 30 mins Rapidfire-Mass spectrometry

in vivo [5] = details: ICR, mouse, iv, 0.1 mg/kg
Description: Half life in ICR mouse at 0.1 mg/kg, iv

in vitro [6] = details: mouse, liver microsomes
Description: Metabolic stability in mouse Liver microsomes

in vivo [7] = details: ICR, mouse, iv, 0.1 mg/kg; remark: listed apart in the source
in vivo [8] = details: ICR, mouse, iv, 0.1 mg/kg; remark: listed apart in the source
Description: Volume of distribution at steady state in ICR mouse at 0.1 mg/kg, iv

Acetyl-CoA carboxylase 2 [9] = molecular target: Acetyl-CoA carboxylase 2 (Mus musculus, UniProt E9Q4Z2); experiment: biochemical
Description: Inhibition of mouse His-tagged ACC2 expressed in baculovirus infected SF9 cells using acetyl-CoA as substrate incubated for 60 mins followed by substrate addition and measured after 30 mins Rapidfire-Mass spectrometry

in vitro [10] = details: human, liver microsomes
Description: Metabolic stability in human Liver microsomes

in vivo [11] = details: ICR, mouse, po, 1 mg/kg; remark: listed apart in the source
in vivo [12] = details: ICR, mouse, po, 1 mg/kg; remark: listed apart in the source
in vivo [13] = details: ICR, mouse, iv, 0.1 mg/kg; remark: listed apart in the source
Description: Clearance in ICR mouse at 0.1 mg/kg, iv

Acetyl-CoA carboxylase 1 [14] = molecular target: Acetyl-CoA carboxylase 1 (Homo sapiens, UniProt Q13085); experiment: biochemical
Description: Inhibition of recombinant human His-tagged ACC1 expressed in baculovirus infected SF9 cells using acetyl-CoA as substrate incubated for 60 mins followed by substrate addition and measured after 30 mins Rapidfire-Mass spectrometry

Acetyl-CoA carboxylase 2 [15] = molecular target: Acetyl-CoA carboxylase 2 (Homo sapiens, UniProt O00763); experiment: biochemical
Chain of Acetyl-CoA carboxylase 2 (Homo sapiens, UniProt O00763) (O00763 whole entry): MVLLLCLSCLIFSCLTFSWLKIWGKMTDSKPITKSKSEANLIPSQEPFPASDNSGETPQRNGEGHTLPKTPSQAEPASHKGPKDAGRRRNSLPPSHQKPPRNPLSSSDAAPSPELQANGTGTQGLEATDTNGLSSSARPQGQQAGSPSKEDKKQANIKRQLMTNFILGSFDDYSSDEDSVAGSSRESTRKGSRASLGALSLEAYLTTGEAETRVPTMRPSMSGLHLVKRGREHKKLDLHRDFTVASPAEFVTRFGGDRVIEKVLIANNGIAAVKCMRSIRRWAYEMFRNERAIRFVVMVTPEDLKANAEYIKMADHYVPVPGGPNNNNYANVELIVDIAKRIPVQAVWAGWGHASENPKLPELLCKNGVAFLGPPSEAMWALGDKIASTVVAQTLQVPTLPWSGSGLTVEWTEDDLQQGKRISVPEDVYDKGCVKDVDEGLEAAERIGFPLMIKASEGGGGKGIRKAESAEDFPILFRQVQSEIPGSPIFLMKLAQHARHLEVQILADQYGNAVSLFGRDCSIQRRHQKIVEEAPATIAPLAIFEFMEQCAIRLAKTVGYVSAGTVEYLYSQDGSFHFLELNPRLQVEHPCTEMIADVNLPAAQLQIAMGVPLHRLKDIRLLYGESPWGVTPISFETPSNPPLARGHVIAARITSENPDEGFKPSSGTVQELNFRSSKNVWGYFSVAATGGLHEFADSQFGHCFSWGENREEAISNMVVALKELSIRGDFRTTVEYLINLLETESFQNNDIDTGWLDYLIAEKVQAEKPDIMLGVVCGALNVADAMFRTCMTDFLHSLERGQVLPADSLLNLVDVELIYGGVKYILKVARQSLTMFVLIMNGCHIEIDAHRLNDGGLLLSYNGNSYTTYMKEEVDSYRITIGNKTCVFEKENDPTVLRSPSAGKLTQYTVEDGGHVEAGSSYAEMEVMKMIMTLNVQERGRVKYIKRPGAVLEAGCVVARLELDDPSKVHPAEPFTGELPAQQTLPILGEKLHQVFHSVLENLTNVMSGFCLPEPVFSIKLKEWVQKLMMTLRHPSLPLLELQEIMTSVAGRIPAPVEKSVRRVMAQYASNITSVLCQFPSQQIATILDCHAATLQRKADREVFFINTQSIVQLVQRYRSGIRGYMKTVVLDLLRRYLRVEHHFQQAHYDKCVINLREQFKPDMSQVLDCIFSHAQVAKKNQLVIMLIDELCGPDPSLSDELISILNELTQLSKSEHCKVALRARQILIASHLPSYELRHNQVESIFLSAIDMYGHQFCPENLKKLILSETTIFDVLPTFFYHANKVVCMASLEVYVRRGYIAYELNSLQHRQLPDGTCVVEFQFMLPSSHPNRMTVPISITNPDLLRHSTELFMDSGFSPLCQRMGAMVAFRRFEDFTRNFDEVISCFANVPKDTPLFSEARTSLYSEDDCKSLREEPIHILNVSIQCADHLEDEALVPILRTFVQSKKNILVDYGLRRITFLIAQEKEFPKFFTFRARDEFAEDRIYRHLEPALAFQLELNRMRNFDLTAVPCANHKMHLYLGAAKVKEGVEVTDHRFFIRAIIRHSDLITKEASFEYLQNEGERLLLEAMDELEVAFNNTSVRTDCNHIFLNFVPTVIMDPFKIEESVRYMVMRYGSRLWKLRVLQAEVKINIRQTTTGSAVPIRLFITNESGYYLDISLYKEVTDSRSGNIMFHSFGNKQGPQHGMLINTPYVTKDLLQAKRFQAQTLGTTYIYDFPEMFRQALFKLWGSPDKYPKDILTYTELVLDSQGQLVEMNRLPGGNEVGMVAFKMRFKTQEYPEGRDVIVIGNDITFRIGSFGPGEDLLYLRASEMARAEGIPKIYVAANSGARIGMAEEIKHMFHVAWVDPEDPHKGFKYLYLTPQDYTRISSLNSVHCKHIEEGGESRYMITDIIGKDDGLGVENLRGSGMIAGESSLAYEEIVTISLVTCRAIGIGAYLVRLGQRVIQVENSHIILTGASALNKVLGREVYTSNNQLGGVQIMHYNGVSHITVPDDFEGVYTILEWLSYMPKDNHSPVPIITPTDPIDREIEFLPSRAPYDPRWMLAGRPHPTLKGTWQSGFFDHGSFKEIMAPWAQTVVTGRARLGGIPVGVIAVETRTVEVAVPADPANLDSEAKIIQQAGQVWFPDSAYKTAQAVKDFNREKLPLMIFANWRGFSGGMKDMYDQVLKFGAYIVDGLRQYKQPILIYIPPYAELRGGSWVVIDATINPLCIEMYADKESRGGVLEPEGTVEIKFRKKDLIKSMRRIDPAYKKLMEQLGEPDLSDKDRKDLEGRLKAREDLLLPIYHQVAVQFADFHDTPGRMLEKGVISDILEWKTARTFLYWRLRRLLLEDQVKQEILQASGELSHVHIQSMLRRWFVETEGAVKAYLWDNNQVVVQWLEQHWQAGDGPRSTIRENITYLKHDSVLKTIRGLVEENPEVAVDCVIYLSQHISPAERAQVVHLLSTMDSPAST
Description: Inhibition of recombinant human His-tagged ACC2 expressed in baculovirus infected SF9 cells using acetyl-CoA as substrate incubated for 60 mins followed by substrate addition and measured after 30 mins Rapidfire-Mass spectrometry

Chain of Acetyl-CoA carboxylase 2 (Mus musculus, UniProt E9Q4Z2) (E9Q4Z2 whole entry): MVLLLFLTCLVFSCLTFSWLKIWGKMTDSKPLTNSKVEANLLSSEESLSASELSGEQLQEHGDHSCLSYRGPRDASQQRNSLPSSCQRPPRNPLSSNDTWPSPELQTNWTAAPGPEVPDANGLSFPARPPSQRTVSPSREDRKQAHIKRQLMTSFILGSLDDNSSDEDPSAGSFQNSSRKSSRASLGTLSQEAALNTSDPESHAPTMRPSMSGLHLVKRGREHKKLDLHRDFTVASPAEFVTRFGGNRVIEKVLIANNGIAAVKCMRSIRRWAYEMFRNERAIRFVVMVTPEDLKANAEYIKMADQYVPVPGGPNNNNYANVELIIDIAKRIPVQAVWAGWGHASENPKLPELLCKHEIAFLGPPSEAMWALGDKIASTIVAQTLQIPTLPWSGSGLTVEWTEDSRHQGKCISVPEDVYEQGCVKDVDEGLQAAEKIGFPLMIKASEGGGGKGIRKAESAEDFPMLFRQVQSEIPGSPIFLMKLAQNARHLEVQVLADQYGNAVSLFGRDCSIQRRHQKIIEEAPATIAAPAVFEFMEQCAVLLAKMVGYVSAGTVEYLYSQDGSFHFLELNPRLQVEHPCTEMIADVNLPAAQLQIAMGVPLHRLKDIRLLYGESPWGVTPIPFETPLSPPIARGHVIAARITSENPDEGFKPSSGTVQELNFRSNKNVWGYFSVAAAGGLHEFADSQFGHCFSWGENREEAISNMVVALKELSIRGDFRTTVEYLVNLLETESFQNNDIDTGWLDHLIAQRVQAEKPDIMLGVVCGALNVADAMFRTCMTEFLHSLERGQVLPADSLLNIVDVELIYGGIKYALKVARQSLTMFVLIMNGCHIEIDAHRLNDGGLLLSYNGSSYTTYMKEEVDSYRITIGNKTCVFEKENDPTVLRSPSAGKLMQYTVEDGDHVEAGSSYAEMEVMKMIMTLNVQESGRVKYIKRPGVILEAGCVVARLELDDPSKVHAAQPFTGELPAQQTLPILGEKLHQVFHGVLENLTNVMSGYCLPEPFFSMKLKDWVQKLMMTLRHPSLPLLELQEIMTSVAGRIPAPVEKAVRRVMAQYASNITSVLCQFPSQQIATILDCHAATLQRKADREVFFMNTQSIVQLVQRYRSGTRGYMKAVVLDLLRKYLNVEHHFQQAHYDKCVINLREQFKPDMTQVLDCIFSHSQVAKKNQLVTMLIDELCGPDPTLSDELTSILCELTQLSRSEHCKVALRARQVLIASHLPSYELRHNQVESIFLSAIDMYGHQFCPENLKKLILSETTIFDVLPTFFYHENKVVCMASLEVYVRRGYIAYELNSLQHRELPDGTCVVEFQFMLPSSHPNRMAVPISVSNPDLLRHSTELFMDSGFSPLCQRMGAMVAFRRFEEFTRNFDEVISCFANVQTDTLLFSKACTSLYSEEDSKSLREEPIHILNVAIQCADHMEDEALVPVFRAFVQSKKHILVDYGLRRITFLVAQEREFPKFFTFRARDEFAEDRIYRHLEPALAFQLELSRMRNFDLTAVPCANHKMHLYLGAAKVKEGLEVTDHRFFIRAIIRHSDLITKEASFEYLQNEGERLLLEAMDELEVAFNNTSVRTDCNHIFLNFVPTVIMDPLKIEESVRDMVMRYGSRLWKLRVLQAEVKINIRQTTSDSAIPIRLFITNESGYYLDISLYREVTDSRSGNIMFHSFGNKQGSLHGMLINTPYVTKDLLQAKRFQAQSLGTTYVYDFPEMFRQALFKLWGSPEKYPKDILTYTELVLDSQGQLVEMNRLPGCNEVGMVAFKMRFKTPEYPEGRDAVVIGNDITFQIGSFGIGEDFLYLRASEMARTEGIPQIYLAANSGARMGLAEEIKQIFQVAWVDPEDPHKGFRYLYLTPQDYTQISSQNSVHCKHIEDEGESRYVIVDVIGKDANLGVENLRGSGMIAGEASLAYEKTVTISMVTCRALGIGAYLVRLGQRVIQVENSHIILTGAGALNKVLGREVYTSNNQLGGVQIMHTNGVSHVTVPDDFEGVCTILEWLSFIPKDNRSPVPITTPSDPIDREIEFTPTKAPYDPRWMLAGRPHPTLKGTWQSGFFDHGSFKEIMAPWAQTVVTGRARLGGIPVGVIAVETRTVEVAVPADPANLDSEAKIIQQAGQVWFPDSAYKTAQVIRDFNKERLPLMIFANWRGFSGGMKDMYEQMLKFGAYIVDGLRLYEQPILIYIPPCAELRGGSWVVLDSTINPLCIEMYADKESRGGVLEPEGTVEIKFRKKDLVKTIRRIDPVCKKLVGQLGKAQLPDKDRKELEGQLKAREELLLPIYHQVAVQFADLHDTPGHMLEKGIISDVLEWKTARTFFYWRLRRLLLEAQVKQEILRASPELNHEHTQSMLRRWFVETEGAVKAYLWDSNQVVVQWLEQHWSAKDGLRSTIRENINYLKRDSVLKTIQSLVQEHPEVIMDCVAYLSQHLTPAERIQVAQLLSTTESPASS

| Papp (in vitro [1]) [×10⁻⁶ cm/s] | Papp (in vitro [2]) [×10⁻⁶ cm/s] | MRT (in vivo [3]) [h] | IC50 (Acetyl-CoA carboxylase 1 [4]) [nM] | half-life (in vivo [5]) [h] | microsomal CLint (in vitro [6]) [µL/min/mg] | Cmax (in vivo [7]) [ng/mL] | Vd (in vivo [8]) [L/kg] | IC50 (Acetyl-CoA carboxylase 2 [9]) [nM] | microsomal CLint (in vitro [10]) [µL/min/mg] | bioavailability (in vivo [11]) [%] | AUC(0-t) at 8 h (in vivo [12]) [ng·h/mL] | clearance (in vivo [13]) [mL/min/kg] | IC50 (Acetyl-CoA carboxylase 1 [14]) [nM] | IC50 (Acetyl-CoA carboxylase 2 [15]) [nM] | SMILES |
| --- | --- | --- | --- | --- | --- | --- | --- | --- | --- | --- | --- | --- | --- | --- | --- |
| 33.7 | 27.2 | 3.69 | 0.18 | > 8 | 65 | 1110 | 0.269 | 36 | 27 | 60.6 | 6880 | 1.47 | – | – | CC(=O)NC(C)c1ccc2nc(-c3ccc(Oc4cccc(OCC5CC5)c4)nc3)oc2c1 (configuration not stated) |
| – | – | – | – | – | – | – | – | – | – | – | – | – | 2.1 | 80 | CC(NC(=O)N(C)C)c1ccc2nc(-c3ccc(Oc4cccc(OCC5CC5)c4)nc3)oc2c1 (configuration not stated) |
| – | – | – | – | – | – | – | – | – | – | – | – | – | 3.8 | 77 | CNC(=O)NC(C)c1ccc2nc(-c3ccc(Oc4cccc(OCC5CC5)c4)nc3)oc2c1 (configuration not stated) |
